Reference: PubChem BioAssay (NCI)
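Where inhibition never reached the appropriate level, the endpoint shown equals the highest concentration tested. Otherwise, values were interpolated linearly from a five-concentration, 48-hour dose response in 96-well plates. GI50 marks 50% less growth. TGI: concentration producing complete growth inhibition.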

Columns and labels:
Assay in all cases: growth of human tumour cells (NCI), 48 h
SN12C renal = test system: SN12C renal
OVCAR-3 ovarian = test system: OVCAR-3 ovarian
A549 NSCLC = test system: A549 NSCLC
SK-MEL-2 melanoma = test system: SK-MEL-2 melanoma
ACHN renal = test system: ACHN renal
SK-MEL-28 melanoma = test system: SK-MEL-28 melanoma
OVCAR-8 ovarian = test system: OVCAR-8 ovarian
NCI-H23 lung = test system: NCI-H23 lung
SF-539 CNS = test system: SF-539 CNS
RXF 393 renal = test system: RXF 393 renal
HS 578T breast = test system: HS 578T breast
MOLT-4 leukemia = test system: MOLT-4 leukemia
SF-268 CNS = test system: SF-268 CNS
KM12 colon = test system: KM12 colon
M14 melanoma = test system: M14 melanoma
MDA-MB-435 = test system: MDA-MB-435
SF-295 CNS = test system: SF-295 CNS
IGROV1 ovarian = test system: IGROV1 ovarian
HCT-15 colon = test system: HCT-15 colon
NCI/ADR-RES ovarian = test system: NCI/ADR-RES ovarian
MDA-N = test system: MDA-N
HOP-62 NSCLC = test system: HOP-62 NSCLC
PC-3 prostate = test system: PC-3 prostate
NCI-H522 lung = test system: NCI-H522 lung
SNB-75 CNS = test system: SNB-75 CNS
HCC-2998 colon = test system: HCC-2998 colon
786-0 renal = test system: 786-0 renal
UACC-62 melanoma = test system: UACC-62 melanoma
SNB-19 CNS = test system: SNB-19 CNS
CAKI-1 renal = test system: CAKI-1 renal
DU-145 prostate = test system: DU-145 prostate
U251 CNS = test system: U251 CNS
EKVX NSCLC = test system: EKVX NSCLC
BT-549 breast = test system: BT-549 breast
TK-10 renal = test system: TK-10 renal
SK-MEL-5 melanoma = test system: SK-MEL-5 melanoma
OVCAR-5 ovarian = test system: OVCAR-5 ovarian
UO-31 renal = test system: UO-31 renal
SK-OV-3 ovarian = test system: SK-OV-3 ovarian
NCI-H226 lung = test system: NCI-H226 lung
HT29 colon = test system: HT29 colon
MCF7 breast = test system: MCF7 breast
RPMI-8226 leukemia = test system: RPMI-8226 leukemia
UACC-257 melanoma = test system: UACC-257 melanoma
NCI-H460 lung = test system: NCI-H460 lung
MALME-3M melanoma = test system: MALME-3M melanoma
SW-620 colon = test system: SW-620 colon
K-562 leukemia = test system: K-562 leukemia
SR leukemia = test system: SR leukemia
OVCAR-4 ovarian = test system: OVCAR-4 ovarian
HOP-92 NSCLC = test system: HOP-92 NSCLC
COLO 205 colon = test system: COLO 205 colon
A498 renal = test system: A498 renal
CCRF-CEM leukemia = test system: CCRF-CEM leukemia
HL-60(TB) leukemia = test system: HL-60(TB) leukemia
LOX IMVI melanoma = test system: LOX IMVI melanoma
T-47D breast = test system: T-47D breast
HCT-116 colon = test system: HCT-116 colon
MDA-MB-231 breast = test system: MDA-MB-231 breast

O=C(O)CC(NC(=O)C(F)(F)F)C(=O)NC1Cc2ccccc2OC1=O (stereo unspecified)
TGI (SN12C renal): > 100 µM
TGI (OVCAR-3 ovarian): > 100 µM
TGI (A549 NSCLC): > 100 µM
TGI (SK-MEL-2 melanoma): > 100 µM
TGI (ACHN renal): > 100 µM
TGI (SK-MEL-28 melanoma): > 100 µM
TGI (OVCAR-8 ovarian): > 100 µM
TGI (NCI-H23 lung): > 100 µM
TGI (SF-539 CNS): > 100 µM
TGI (RXF 393 renal): > 100 µM
TGI (HS 578T breast): > 100 µM
TGI (MOLT-4 leukemia): > 100 µM
TGI (SF-268 CNS): > 100 µM
TGI (KM12 colon): > 100 µM
TGI (M14 melanoma): > 100 µM
TGI (MDA-MB-435): > 100 µM
TGI (SF-295 CNS): > 100 µM
TGI (IGROV1 ovarian): > 100 µM
TGI (HCT-15 colon): > 100 µM
TGI (NCI/ADR-RES ovarian): > 100 µM
TGI (MDA-N): > 100 µM
TGI (HOP-62 NSCLC): > 100 µM
TGI (PC-3 prostate): > 100 µM
TGI (NCI-H522 lung): > 100 µM
TGI (SNB-75 CNS): > 100 µM
TGI (HCC-2998 colon): > 100 µM
TGI (786-0 renal): > 100 µM
TGI (UACC-62 melanoma): > 100 µM
TGI (SNB-19 CNS): > 100 µM
TGI (CAKI-1 renal): > 100 µM
TGI (DU-145 prostate): > 100 µM
TGI (U251 CNS): > 100 µM
TGI (EKVX NSCLC): > 100 µM
TGI (BT-549 breast): > 100 µM
TGI (TK-10 renal): > 100 µM
TGI (SK-MEL-5 melanoma): > 100 µM
TGI (OVCAR-5 ovarian): > 100 µM
TGI (UO-31 renal): > 100 µM
TGI (SK-OV-3 ovarian): > 100 µM
TGI (NCI-H226 lung): > 100 µM
TGI (HT29 colon): > 100 µM
TGI (MCF7 breast): > 100 µM
TGI (RPMI-8226 leukemia): > 100 µM
TGI (UACC-257 melanoma): > 100 µM
TGI (NCI-H460 lung): > 100 µM
TGI (MALME-3M melanoma): > 100 µM
TGI (SW-620 colon): > 100 µM
TGI (K-562 leukemia): > 100 µM
TGI (SR leukemia): > 100 µM

CN(CCCNC(=O)c1cn(C)c2c1ccc1cc(Cl)ccc12)CCCNC(=O)c1cn(C)c2c1ccc1cc(Cl)ccc12
TGI (SN12C renal): 3.35 µM
TGI (ACHN renal): 3.47 µM
TGI (SK-MEL-28 melanoma): 3.31 µM
TGI (NCI-H23 lung): > 100 µM
TGI (SF-539 CNS): 3.88 µM
TGI (SF-268 CNS): 3.25 µM
TGI (OVCAR-4 ovarian): > 27.2 µM
TGI (M14 melanoma): 3.75 µM
TGI (MDA-MB-435): 3.23 µM
TGI (HCT-15 colon): 2.89 µM
TGI (MDA-N): 5.6 µM
TGI (PC-3 prostate): 2.97 µM
TGI (HOP-92 NSCLC): 19.3 µM
TGI (UACC-62 melanoma): 3.76 µM
TGI (SNB-19 CNS): > 100 µM
TGI (CAKI-1 renal): 9.14 µM
TGI (DU-145 prostate): 3.79 µM
TGI (COLO 205 colon): 2.85 µM
TGI (EKVX NSCLC): > 100 µM
TGI (BT-549 breast): 30.9 µM
TGI (TK-10 renal): > 100 µM
TGI (SK-MEL-5 melanoma): 20 µM
TGI (OVCAR-5 ovarian): 18.3 µM
TGI (NCI-H226 lung): > 100 µM
TGI (HT29 colon): 3.19 µM
TGI (UACC-257 melanoma): > 100 µM
TGI (NCI-H460 lung): > 100 µM
TGI (A498 renal): 43.6 µM
TGI (MALME-3M melanoma): 7.05 µM
TGI (K-562 leukemia): > 100 µM
TGI (SR leukemia): 16.3 µM

CC(C)=CC/C=C(/C)[C@H]1CC[C@]2(C)[C@@H]1CC[C@@H]1[C@@]3(C)CCC(=O)NC(C)(C)[C@@H]3CC[C@]12C
GI50 (SN12C renal): 16.1 µM
TGI (SN12C renal): 33.8 µM
GI50 (OVCAR-3 ovarian): 18.3 µM
TGI (OVCAR-3 ovarian): 34.1 µM
GI50 (A549 NSCLC): 30.2 µM
TGI (A549 NSCLC): > 100 µM
GI50 (SK-MEL-2 melanoma): 27.6 µM
TGI (SK-MEL-2 melanoma): 82.8 µM
GI50 (ACHN renal): 20 µM
TGI (ACHN renal): 43 µM
GI50 (SK-MEL-28 melanoma): 16.7 µM
TGI (SK-MEL-28 melanoma): 31.6 µM
GI50 (CCRF-CEM leukemia): 12.4 µM
TGI (CCRF-CEM leukemia): 47.9 µM
GI50 (OVCAR-8 ovarian): 26 µM
TGI (OVCAR-8 ovarian): 76.7 µM
GI50 (NCI-H23 lung): 18.3 µM
TGI (NCI-H23 lung): 45.7 µM
GI50 (SF-539 CNS): 16.5 µM
TGI (SF-539 CNS): 30.5 µM
GI50 (RXF 393 renal): 16.8 µM
TGI (RXF 393 renal): 32.4 µM
GI50 (HS 578T breast): 26.3 µM
TGI (HS 578T breast): 94.3 µM
GI50 (HL-60(TB) leukemia): 18.2 µM
TGI (HL-60(TB) leukemia): 49.3 µM
GI50 (MOLT-4 leukemia): 15.4 µM
TGI (MOLT-4 leukemia): 49.6 µM
GI50 (SF-268 CNS): 17.2 µM
TGI (SF-268 CNS): 34.6 µM
GI50 (KM12 colon): 18.7 µM
TGI (KM12 colon): 37.5 µM
GI50 (OVCAR-4 ovarian): 21.9 µM
TGI (OVCAR-4 ovarian): 75 µM
GI50 (M14 melanoma): 17.8 µM
TGI (M14 melanoma): 39.3 µM
GI50 (MDA-MB-435): 20.7 µM
TGI (MDA-MB-435): 48.9 µM
GI50 (SF-295 CNS): 18.7 µM
TGI (SF-295 CNS): 36.6 µM
GI50 (IGROV1 ovarian): 10.6 µM
TGI (IGROV1 ovarian): 26.5 µM
GI50 (HCT-15 colon): 15.4 µM
TGI (HCT-15 colon): 32.1 µM
GI50 (NCI/ADR-RES ovarian): 22.2 µM
TGI (NCI/ADR-RES ovarian): 55.6 µM
GI50 (HOP-62 NSCLC): 20.8 µM
TGI (HOP-62 NSCLC): 44.7 µM
GI50 (PC-3 prostate): 7.49 µM
TGI (PC-3 prostate): 23.9 µM
GI50 (NCI-H522 lung): 18.4 µM
TGI (NCI-H522 lung): 40.2 µM
GI50 (SNB-75 CNS): 20.9 µM
TGI (SNB-75 CNS): 55.1 µM
GI50 (HOP-92 NSCLC): 13.8 µM
TGI (HOP-92 NSCLC): 28.2 µM
GI50 (HCC-2998 colon): 20.2 µM
TGI (HCC-2998 colon): 35.8 µM
GI50 (786-0 renal): 19.8 µM
TGI (786-0 renal): 37.5 µM
GI50 (UACC-62 melanoma): 16.9 µM
TGI (UACC-62 melanoma): 43.5 µM
GI50 (SNB-19 CNS): 25 µM
TGI (SNB-19 CNS): 72.4 µM
GI50 (CAKI-1 renal): 19.6 µM
TGI (CAKI-1 renal): 40.3 µM
GI50 (DU-145 prostate): 16.9 µM
TGI (DU-145 prostate): 31.7 µM
GI50 (COLO 205 colon): 25.3 µM
TGI (COLO 205 colon): 64.7 µM
GI50 (LOX IMVI melanoma): 17.9 µM
TGI (LOX IMVI melanoma): 32.4 µM
GI50 (U251 CNS): 17.2 µM
TGI (U251 CNS): 36.5 µM
GI50 (EKVX NSCLC): 27.7 µM
TGI (EKVX NSCLC): 84 µM
GI50 (BT-549 breast): 18.7 µM
TGI (BT-549 breast): 43.5 µM
GI50 (T-47D breast): 19.8 µM
TGI (T-47D breast): 91 µM
GI50 (TK-10 renal): 47.5 µM
TGI (TK-10 renal): > 100 µM
GI50 (SK-MEL-5 melanoma): 13.3 µM
TGI (SK-MEL-5 melanoma): 26.4 µM
GI50 (OVCAR-5 ovarian): 19.3 µM
TGI (OVCAR-5 ovarian): 39.5 µM
GI50 (UO-31 renal): 15.6 µM
TGI (UO-31 renal): 29.2 µM
GI50 (SK-OV-3 ovarian): 47.7 µM
TGI (SK-OV-3 ovarian): > 100 µM
GI50 (NCI-H226 lung): 19.1 µM
TGI (NCI-H226 lung): 43.1 µM
GI50 (HT29 colon): 20.4 µM
TGI (HT29 colon): 72.3 µM
GI50 (MCF7 breast): 18.8 µM
TGI (MCF7 breast): 62.8 µM
GI50 (HCT-116 colon): 15 µM
TGI (HCT-116 colon): 34.5 µM
GI50 (RPMI-8226 leukemia): 11.8 µM
TGI (RPMI-8226 leukemia): 34.6 µM
GI50 (MDA-MB-231 breast): 20.5 µM
TGI (MDA-MB-231 breast): 44.3 µM
GI50 (UACC-257 melanoma): 31.7 µM
TGI (UACC-257 melanoma): > 100 µM
GI50 (NCI-H460 lung): 33.9 µM
TGI (NCI-H460 lung): > 100 µM
GI50 (A498 renal): 23.6 µM
TGI (A498 renal): 67.5 µM
GI50 (MALME-3M melanoma): 16 µM
TGI (MALME-3M melanoma): 30.8 µM
GI50 (SW-620 colon): 20.2 µM
TGI (SW-620 colon): 43.9 µM
GI50 (K-562 leukemia): 17.3 µM
TGI (K-562 leukemia): 88.2 µM
GI50 (SR leukemia): 17.4 µM
TGI (SR leukemia): 51.8 µM
